Experimental data reported in patent US5116846A, “N-aralkyl piperidine derivatives as psychotropic drugs” (priority 1990, dated 1992).

Legend:
sigma receptor = settings: Tam, Eur. Pharmacol, 109:33-41 (1985); cited from earlier work
[1] = Isolation-Induced Aggression in Mice; type: in vivo, mouse (male Balb/c)
Experimental: Male Balb/c mice (Charles River) were used. […] Isolated mice failing to consistently attack an intruder were eliminated from the colony.
Drug testing was carried out by treating the isolated mice with test drugs or standards. Fifteen minutes after dosing with test drugs by the oral route, one isolated mouse was removed from its home cage and placed in the home cage of another isolate. Scoring was a yes or no response for each pair. A maximum of 3 minutes was allowed for an attack and the pair was separated immediately upon an attack. Selection of home cage and intruder mice was randomized for each test. Mice were treated and tested twice a week with at least a 2 day washout period between treatments.

[2] = (+)-N-Allylnormetazocine-Induced Turning Behavior in Rats; type: in vivo, rat (male Sprague-Dawley); settings: test drug p.o. or s.c. 20 minutes before testing; (+)-N-allylnormetazocine 4.0 mg/kg s.c.; class symbols not defined
Experimental: (+)-N-Allylnormetazocine-Induced Turning Behavior in Rats
Male Sprague-Dawley rats (CDlCR, Charles River), weighing 190-290 g, were used for surgery. In order to spare […] neurons, rats were injected with 25 mg/kg imipramine i.p. 30 minutes before surgery. The rats were anesthetized with a 1:1.2 ratio mixture of Xylazine:Ketamine given 0.1 mL/100 g body weight i.m. A Ringers-Wydaze (100:0.01) solution was given to prevent dehydration. Dopamine was depleted in the right striatum by injecting the neurotoxin 6-hydroxydopamine (6-OHDA) into the substantia nigra of the right cerebral hemisphere. Five mg of 6-OHDA was dissolved in 5 mL of a 0.04% ascorbic acid solution which had been deoxygenated with nitrogen. Five μL of the 6-OHDA solution was injected into the substantia nigra through a 26 gauge needle over a five minute period. […]
Rotation rate and direction were determined with Coulbourn Instruments Rotometry Monitors. Clockwise and counter clockwise rotations were recorded at 30 and 60 minute intervals. […]
The data were analyzed with an analysis of variance statistical test and individual comparisons of each dose of test drug to control were made with Dunnett's multiple range test. The ED50 was calculated with a Litchfield and Wilcoxon test using percent of control values. […]

Compound | affinity for the sigma receptor (sigma receptor) | Inhibition of Isolation-induced Aggression ([1]; oral, fifteen minutes after dosing, class symbols not defined) | Inhibition of Isolation-induced Aggression ([1]; po) | Inhibition of (+)-N-Allylnormetazocine Induced Turning [2]
c1ccc(C2(N3CCCCC3)CCCCC2)cc1 [PCP, phencyclidine] | significant affinity for the sigma receptor | – | – | –
O=C(CCCN1CCC(O)(c2ccc(Cl)cc2)CC1)c1ccc(F)cc1 [Haloperidol, haloperidol] | – | potent activities in inhibiting the isolation-induced aggressive behavior | +++ | potently antagonized
